The values that follow come from patent US8940728B2 (priority 2012, dated 2015).

pIC50: −log10 of the molar value. Read-outs that look alike come from different tables or passages of the source.

Data set [1] has as its target T1, a3b4 nAChRs (Homo sapiens, UniProt P30926+P32297). The data set is described as follows: Relative potency on epibatidine-induced calcium response at a3b4 nAChRs. The format is cell-based. The procedure:
(§1) The HEK293 (a3b4, a4b2 and a7) and SH-SYSY cell lines (a3b4) expressing nAChRs are used. Validated assays optimized with respect to sensitivity, dynamic range, signal intensity and stability for chemical probe validation and SAR refinement are used.
(§2) Nicotinic functional assays are performed using the Molecular Devices FLIPR® Calcium 5 Assay Kit. HEK293 cells overexpressing α3β4, α4β2 or α7 (50,000 cells per well in 100 μl growth media) and are plated in clear bottom black walled 96-well microplates and incubated for 24-48 hours at 37° C., 5% CO2 until a 80-90% confluent monolayer is formed. On the day of the assay, 100 μl of Calcium 5 Dye is added to each well. Following addition of dye, cells are incubated at 25° C. for 60 minutes. Following dye loading, 50 μl of a 5× solution of reference or test compound of appropriate concentration range (0.01-30 μM), prepared in 20 mM HEPES pH 7.4 in HBSS, is added to each well. Plates are then transferred to the Molecular Devices Flexstation® which transfers 50 μL of a 5× solution (500 nM) of epibatine to each well to initiate the Ca+2 flux. Additional wells (in quadruplicate) are prepared with no added test or reference ligand for measurement of 100% flux. The RFU (relative fluorescence units) in the presence of the test or reference compounds is then expressed on the percent scale. The percent inhibition of epibatidine induced Ca^+2 flux is calculated as follows: % inhibition=100%−% RFU (relative fluorescence units). The IC50 values for reference and test compounds are obtained by fitting normalized RFU data using Graphpad Prism software.

Data set [2] concerns the target T2, α3β4 nicotinic receptor subtype (Homo sapiens, UniProt P30926+P32297).
T2 construct: SH-SYSY cells predominantly express the α3β4 nicotinic receptor subtype; endogenous in cells; host or cells: SH-SYSY (SH-SY5Y) cells
The experiment in a line: cell-based. Conditions: for IC50: Caliper; for pIC50: SH-SYSY cells, preliminary studies by Caliper Life Sciences.
Description: as §1

For data set [3], the target named is T1, a3b4 nAChRs. The data set is described as follows: FLIPR Ca+2 flux assay, epibatidine-induced calcium response, A3B4-HEK cells. The format is cell-based. The procedure:
as §1
as §2, with “Additional wells (in quadruplicate) are prepared with no added test or reference ligand for measurement of 100% flux.” left out, “The IC50 values for reference and test compounds are obtained by fitting normalized RFU data using Graphpad Prism software.” left out

Data set [4] is described as follows: Binding panel of over 50 receptors, transporters, ion channels, second messengers, growth factor receptors and enzymes. The note with it: at physiologically relevant concentrations. The text has this:
The association between cigarette smoking and the presence and severity of suicidal behavior across major psychiatric disorders may be related to lower brain serotonin function in smokers with depression).

The nature of data set [5]: CNS penetration across the brain blood barrier. The note with it: in vivo. The procedure:
Mice are dosed with compounds. Brain to blood ratios are determined by HPLC and LC/MS/MS analysis following oral administration of the test compounds in mice.

In the next data set the target is T3, mu opioid receptor (mOR) (Homo sapiens, UniProt P35372).
T3 construct: expressed in transfected cells; host or cells: CHO or HEK293
The experiment in a line: Mu opioid receptor radioligand binding. As for the experimental part: (§3) Established radioligand binding methods are used to evaluate the ability of the compounds to block reuptake of serotonin and dopamine in membrane preparations of synaptosomes. Equilibrium binding affinity values is determined for each compound at opioid receptors (μ and κ subtypes) and biogenic amine transporters (DAT and SERT). Where possible, binding experiments utilize membranes derived from CHO or HEK293 cells engineered to overexpress the human form of the receptor or transporter of interest. Radiolabeling of opioid receptors, and biogenic amine transporters utilizes conventional radioligands, buffers and incubation conditions according to published assays.
(§4) Test compounds, reference compounds and the radioligand (Kd value) are added to binding buffer. Assays are run with test or reference compound over a range of concentration (0.0001-10 uM) in triplicate using a 96-well sample plate containing radioligands specific for the target receptor or transporter. […] Bound radioactivity is counted in a Microbeta scintillation counter. Total bound radioactivity is estimated from triplicate wells containing no test or reference compound, together with nonspecific binding and filter blanks. The average bound radioactivity in the presence of the test compounds is expressed % inhibition=100%−% radioactivity bound. […]

The target in data set [6] is T1, a3b4 nAChRs. The experiment in a line: FLIPR Ca+2 flux assay, epibatidine-induced calcium response, SH-SYSY cells. The data set is classed as cell-based. As for the experimental part: as §1
as §2, with “Additional wells (in quadruplicate) are prepared with no added test or reference ligand for measurement of 100% flux.” left out, “The IC50 values for reference and test compounds are obtained by fitting normalized RFU data using Graphpad Prism software.” left out

The next data set has as its target 5-HT transporter (Homo sapiens, UniProt P31645). The data set is described as follows: 5-HT transporter radioligand binding. The procedure:
as §3, §4

Data set [7] deals with T4, kappa opioid receptor (kOR) (Homo sapiens, UniProt P41145).
T4 construct: expressed in transfected cells; host or cells: CHO or HEK293
The experiment in a line: Kappa opioid receptor radioligand binding. The procedure: as §3, §4

T2 sequence (P32297 32-505): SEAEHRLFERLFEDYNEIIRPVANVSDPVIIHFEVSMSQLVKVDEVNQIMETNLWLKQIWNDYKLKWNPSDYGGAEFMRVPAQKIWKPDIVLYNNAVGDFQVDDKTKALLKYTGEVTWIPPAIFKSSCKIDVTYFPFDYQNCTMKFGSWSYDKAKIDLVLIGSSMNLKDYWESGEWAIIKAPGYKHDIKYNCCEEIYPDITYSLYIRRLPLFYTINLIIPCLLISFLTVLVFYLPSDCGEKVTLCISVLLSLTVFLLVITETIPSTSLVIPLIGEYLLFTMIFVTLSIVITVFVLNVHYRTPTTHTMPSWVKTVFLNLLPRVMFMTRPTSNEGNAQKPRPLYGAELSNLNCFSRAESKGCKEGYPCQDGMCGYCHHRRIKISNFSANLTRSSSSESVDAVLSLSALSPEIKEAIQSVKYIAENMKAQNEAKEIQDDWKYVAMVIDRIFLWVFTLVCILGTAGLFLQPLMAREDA
T2 sequence (P30926 22-498): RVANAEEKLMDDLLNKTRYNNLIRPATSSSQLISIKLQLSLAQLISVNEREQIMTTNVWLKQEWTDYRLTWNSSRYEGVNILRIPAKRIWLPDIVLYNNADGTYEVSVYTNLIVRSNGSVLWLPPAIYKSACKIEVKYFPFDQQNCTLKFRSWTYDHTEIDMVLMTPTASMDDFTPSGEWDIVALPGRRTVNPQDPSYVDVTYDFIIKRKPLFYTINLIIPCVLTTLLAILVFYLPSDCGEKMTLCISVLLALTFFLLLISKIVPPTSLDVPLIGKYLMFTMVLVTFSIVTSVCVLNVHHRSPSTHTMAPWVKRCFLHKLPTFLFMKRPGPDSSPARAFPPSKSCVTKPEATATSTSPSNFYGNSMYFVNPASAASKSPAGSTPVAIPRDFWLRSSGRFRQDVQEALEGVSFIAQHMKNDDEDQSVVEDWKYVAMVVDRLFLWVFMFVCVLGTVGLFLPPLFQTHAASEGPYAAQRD
T1 sequence (P30926 22-498): as above
T1 sequence (P32297 32-505): as the sequence (P32297 32-505) above
5-HT transporter, sequence (P31645 whole entry): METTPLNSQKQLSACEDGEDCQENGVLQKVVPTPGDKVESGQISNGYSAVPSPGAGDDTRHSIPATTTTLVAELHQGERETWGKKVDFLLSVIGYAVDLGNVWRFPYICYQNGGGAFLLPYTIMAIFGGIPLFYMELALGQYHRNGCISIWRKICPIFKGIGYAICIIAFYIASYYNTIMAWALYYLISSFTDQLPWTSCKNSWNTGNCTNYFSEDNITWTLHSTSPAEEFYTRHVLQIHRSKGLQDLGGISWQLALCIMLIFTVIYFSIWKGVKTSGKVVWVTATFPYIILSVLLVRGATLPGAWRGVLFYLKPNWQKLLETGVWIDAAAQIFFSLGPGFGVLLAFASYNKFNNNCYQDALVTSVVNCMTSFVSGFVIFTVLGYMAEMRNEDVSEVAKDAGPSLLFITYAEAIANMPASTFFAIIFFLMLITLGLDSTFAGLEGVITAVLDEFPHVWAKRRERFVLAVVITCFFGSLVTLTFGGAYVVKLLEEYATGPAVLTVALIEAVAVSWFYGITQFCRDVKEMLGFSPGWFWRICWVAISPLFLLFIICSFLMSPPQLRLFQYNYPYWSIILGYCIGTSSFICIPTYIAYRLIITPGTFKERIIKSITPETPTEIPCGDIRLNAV
T3 sequence (P35372 whole entry): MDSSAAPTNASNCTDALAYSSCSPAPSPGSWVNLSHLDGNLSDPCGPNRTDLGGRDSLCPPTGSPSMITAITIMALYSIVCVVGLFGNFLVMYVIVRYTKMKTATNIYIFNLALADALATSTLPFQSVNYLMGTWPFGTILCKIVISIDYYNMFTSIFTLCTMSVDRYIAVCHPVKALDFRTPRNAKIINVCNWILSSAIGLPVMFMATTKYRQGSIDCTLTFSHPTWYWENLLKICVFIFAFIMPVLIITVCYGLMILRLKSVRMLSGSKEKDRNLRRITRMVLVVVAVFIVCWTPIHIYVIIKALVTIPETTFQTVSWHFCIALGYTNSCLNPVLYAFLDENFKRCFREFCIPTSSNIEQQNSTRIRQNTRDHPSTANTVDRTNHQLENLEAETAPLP
T4 sequence (P41145 whole entry): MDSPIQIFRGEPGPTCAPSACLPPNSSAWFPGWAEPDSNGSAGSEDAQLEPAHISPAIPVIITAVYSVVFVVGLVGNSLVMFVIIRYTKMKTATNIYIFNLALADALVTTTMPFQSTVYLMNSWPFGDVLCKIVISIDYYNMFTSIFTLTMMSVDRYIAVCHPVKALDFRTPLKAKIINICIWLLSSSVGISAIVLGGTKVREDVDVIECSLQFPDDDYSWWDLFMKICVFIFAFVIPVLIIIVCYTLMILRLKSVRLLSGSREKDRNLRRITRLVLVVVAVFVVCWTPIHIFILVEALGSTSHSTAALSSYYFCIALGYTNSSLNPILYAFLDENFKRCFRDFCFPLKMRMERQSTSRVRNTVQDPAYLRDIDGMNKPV

For the molecule Ibogaine, at a3b4 nAChRs [1] (in words), the “Potency as inhibitor of epibatidine-induced calcium response compared with 18-MC and noribogaine” value is on record as “more potent inhibitors than 18-MC”.

As usually defined, the IC50 is the point on the concentration scale where inhibition reaches its midpoint. As to `CC[C@H]1CC2C[C@H]3c4[nH]c5ccc(O)cc5c4CCN(C2)C13` [Noribogaine, 12-hydroxyibogamine], the IC50 in data set [2] (IC50 (uM) Caliper, inhibition of epibatidine-induced calcium response) amounted to 1 µM. Moreover, the pIC50 in data set [2] (IC50 as antagonist for epibatine induced Ca+2 flux) was 6.34; on a3b4 nAChRs [3], 4.74; on a3b4 nAChRs [6], 6.52. Besides, the “Targets bound in the panel” value in [4] was “only bound to SERT, DAT, mu and kappa opioid receptors”. Further, in [5], the “Crossing of the BBB and concentration in brain” value is “cross the BBB and reach micromolar concentrations in brain”. For the same molecule, the “Affinity at mu opioid receptors” value at mu opioid receptor (mOR) came to 900 nM. Moreover, the “Affinity to the 5-HT transporter” value on 5-HT transporter was determined as 50 nM. In [7], the “Affinity at kappa opioid receptors” value came out at 1 µM.

As to `COCC[C@H]1CC2CN3CCc4c([nH]c5ccccc45)[C@](C(=O)OC)(C2)[C@H]13` [Compound 18-MC, 18-methoxycoronaridine], the IC50 in data set [2] (read-out: IC50 (uM) Caliper, inhibition of epibatidine-induced calcium response) was 3.9 µM; at a3b4 nAChRs [6] (SH-SYSY cells, read-out: IC50 (uM) SH-SYSY, inhibition of epibatidine-induced calcium response), 3.9 µM. Moreover, the pIC50 is 5.41 in [2] (read-out: IC50 as antagonist for epibatine induced Ca+2 flux) and 5.40 at a3b4 nAChRs [1] (reference value for the ratios of Table 4, read-out: Potency of 18-MC at a3b4 nAChRs taken as reference). Also, the “Crossing of the BBB and concentration in brain” value in data set [5] is “cross the BBB and reach micromolar concentrations in brain”. Besides, the “Ratio from 18-MC (relative potency at a3b4 nAChRs)” value on a3b4 nAChRs [1] (relative to 18-MC = 1 (4 uM)) is reported as 1.
